Bounds are passed on as bounds.

Common to all, as to type: cell-based
Test [1] relates to Streptococcus pneumoniae. The experiment in a line: oxacillin disc sensitivity test. The settings on record: tolerant clinical isolates. On the procedure:
(§1) Characteristics of Tolerant Isolates. The MIC's of the tolerant isolates ranged from 0.1 ug/ml to 0.3 ug/ml vancomycin and all were resistant to penicillin as evidenced by an oxacillin disc sensitivity test. Tolerance was not correlated with serotype. Frequently, tolerant strains were isolated days to weeks after non-tolerant strains in the same child indicating tolerance could arise during carriage in the nasopharynx. Clonal relatedness between the non-tolerant and tolerant strains isolated sequentially from the same child was assessed by pulse-field gel electrophoresis (PFGE) patterns of SmaI digested genomic DNA. […] Thus, tolerant and non-tolerant strains could be paired for comparison. PFGE indicated a possible serotype switch in one child (Child C), while another child (Child E) was colonized by two separate, yet closely related, tolerant strains.

Test [2] concerns Streptococcus pneumoniae. The test is described as follows: lysis by 1% deoxycholate (activation of functional LytA). The settings on record: all tolerant isolates. The text has this: Identification of the Mechanism Contributing to Tolerance. […] Furthermore, all tolerant isolates were lysed by 1% deoxycholate—a detergent that specifically activates functional LytA causing lysis of the bacteria. This eliminated mechanisms of tolerance in the clinical strains that arise from lack of enzyme or loss of amidase activity. Attention thus focused on the only reported mechanism where normal amidase is present: mutation of the vncR/S locus, encoding a two-component sensor regulator system. Western blot analysis confirmed the presence of VncS and VncR in the tolerant clinical isolates.

The subject of test [3] is Streptococcus pneumoniae. The test is described as follows: viability assay after exposure to vancomycin. The text has this:
To confirm tolerance, the 27 non-lytic strains were subjected to viability assays. […] This is within ±2 standard deviations (SD) of the killing rate for the tolerant Lyt4-4 strain.

For test [4], the system named is Streptococcus pneumoniae. The test is described as follows: lysis after exposure to 10×MIC vancomycin (optical density of the culture). The protocol:
Prevalence of vancomycin tolerance in clinical isolates. To determine the prevalence of vancomycin tolerance in Streptococcus pneumoniae in a population of healthy children, 215 nasopharygeal isolates from Vanderbilt University Hospital were screened for lysis after exposure to 10×MIC (minimum inhibitory concentration) vancomycin (5 ug/ml).

For test [5], the system named is Streptococcus pneumoniae. The test is described as follows: MIC of tolerant isolates. The settings on record: tolerant clinical isolates. On the procedure:
as §1

For test [6], the system named is Streptococcus pneumoniae. The experiment in a line: reversal of tolerance by exogenous synthetic Pep27 added with vancomycin. The settings on record: tolerant clinical strains, vancomycin 10×MIC in the absence of peptide. The protocol: Pep27 Transport by Vex. In laboratory strains, tolerance has been created by loss of function mutations in the death signal Pep27 or its transporter Vex, the loci contiguous with vncS/R. Tolerance in these cases was attributed to lack of Pep27 or lack of Pep27 export into the supernatant. To assess Pep27 in the supernatant, immunoprecipitations were performed using Pep27 antibody. […] Therefore, extracellular transport of the peptide may be defective in tolerant strains leading to the loss of signal for death through VncS. If so, tolerance should be reversed through the addition of exogenous Pep27 to the culture. To test this, tolerant clinical strains were treated with vancomycin at 10×MIC as before but 0.5 mM synthetic Pep27 was added in conjunction with the antibiotic.

Take penicillin: the penicillin susceptibility result in the test on Streptococcus pneumoniae [1] is on record as “resistant”.

Consider deoxycholate, for which the “lysis of the bacteria” value with Streptococcus pneumoniae [2] is listed as “lysed”.

As a reminder, the MIC is the least concentration at which growth counts as inhibited. With `CN[C@H](CC(C)C)C(=O)N[C@H]1C(=O)N[C@@H](CC(N)=O)C(=O)N[C@H]2C(=O)N[C@H]3C(=O)N[C@H](C(=O)N[C@H](C(=O)O)c4cc(O)cc(O)c4-c4cc3ccc4O)[C@H](O)c3ccc(c(Cl)c3)Oc3cc2cc(c3O[C@@H]2O[C@H](CO)[C@@H](O)[C@H](O)[C@H]2O[C@H]2C[C@](C)(N)[C@H](O)[C@H](C)O2)Oc2ccc(cc2Cl)[C@H]1O` [vancomycin], the log kill in the test on Streptococcus pneumoniae [3] (R6 strain, after 4 hours of exposure to vancomycin) was 5 log. Besides, in the test on Streptococcus pneumoniae [3] (eight tolerant clinical isolates, after 4 hours of exposure to vancomycin), the log killing is reported as less than 3 log. In the test with Streptococcus pneumoniae [3] (remaining 19 non-lytic isolates), the “viability after antibiotic exposure” value is listed as “dead after antibiotic exposure”. Moreover, the “optical density of the culture” value in the test on Streptococcus pneumoniae [4] (27 of 215 nasopharyngeal isolates that failed to lyse, after 4 hours, 10×MIC vancomycin (5 ug/ml)) is recorded as “above 0.15”. In the test on Streptococcus pneumoniae [4] (control R6 strain, after 2 hours @ 10×MIC of vancomycin), the OD620nm was 0.02. In addition, the MIC in the test with Streptococcus pneumoniae [5] was in the range of 0.1 to 0.3 µg/mL. Further, in the test with Streptococcus pneumoniae [6], the viability diminished was 2 logs.

For the origin of these results see patent US6623931B2, “Diagnostic assay for antibiotic tolerance” (priority 2001, dated 2003).
